Assay results reported in patent US20240122893A1 (priority 2021, published 2024).
Structures can show the parent of a compound that is named as a salt. Where two headings read alike, the source gives them in different places.

What was measured:
SARS-CoV-2 [1] = conditions: treatment of cells with NRF2 agonists; cited from earlier work
HCoV-OC43 [2] = assay: microbe, parasite or virus in culture; type: cell-based, Human coronavirus OC43
SARS-CoV-2 [3] = assay: CPE inhibition assay, SARS-CoV-2 strains in Vero C1008 cells; type: cell-based
SARS-CoV-2 [4] = assay: organism not typed; conditions: Caco-2, read-out: IC50, reduction of viral RNA
Protocol: vRNA determination: Zymo Quick-RNA Viral 96 Kit (Zymo Research) was used to isolate RNA from cell supematants according to the manufacturer's protocol. cDNA synthesis was performed using qScript cDNA Supermix containing randomhexamers and oligo-dT primers following the manufacture's protocol (Quanta Biosciences). Real-time PCR was performed in technical triplicate for each sample using TaqMan Fast Advanced Master Mix (Applied Biosystems) on a StepOne Plus Real Time PCR machine (Applied Biosystems). […] The cycling parameters were as follows: (i) 2 min at 50° C.; (ii) 2 min at 95° C.; and (iii) 45 cycles at 95° C. for 3s and 55° C. for 30 s. Molecular standard curves were generated using serial dilutions of a plasmid containing the complete SARS-CoV-2N gene (Integrated DNA Technologies, Catalog #10006625).
Viral RNA determination. Zymo Quick-RNA Viral 96 Kit (Zymo Research) was used to isolate RNA from cell supematants according to the manufacturer's protocol. cDNA synthesis was performed using qScript cDNA Supermix containing random hexamers and oligo-dT primers following the manufacture's protocol (Quanta Biosciences). Real-time quantitative reverse transcription
PCR (RT-qPCR) was performed in technical triplicate for each sample using TaqMan Fast Advanced Master Mix (Applied Biosystems) on a StepOne Plus Real Time PCR machine (Applied Biosystems). […]

SARS-CoV-2/USA/WI1/2020 [5] = conditions: for protein concentration in bronchoalveolar lavage (BAL), measure of lung injury: 6 days post-infection; for SARS-CoV-2 spike protein distribution in the lungs: vs infected untreated animals
SARS-CoV-2/USA/WI1/2020 [6] = system: SARS-CoV-2/USA/WI1/2020
Protocol: Flow cytometry: Lungs were minced and incubated at 37° C. in an enzyme cocktail of RPMI containing 2.4 mg/ml collagenase I and 20 μg/ml DNase (Invitrogen), then mashed through a 70-μm nylon cell strainer (BD Falcon). […] For analysis immediately ex vivo, cells were washed once in PBS and immediately stained for viability with Biolegend Live/Dead Zombie NIR Fixable Viability Dye and Fc Block for 10 min at room temperature. Cell surface staining was performed in 100 uL of 20% BD Horizon™ Brilliant Stain Buffer+ PBS with surface stain antibody cocktail for 20 min at room temperature. Cells were fixed and permeabilized with eBioscience™ FoxP3/Transcription Factor Staining kit 1× Fixation/Permeabilization reagent overnight at 4° C. Cells were washed with 1× Permeabilization/Wash buffer. Intracellular staining (ICS) was performed in 100 uL 1× Permeabilization/Wash buffer with ICS antibody cocktail for 45 min at room temperature. Cells were washed once with Permeabilization/Wash buffer then resuspended in Permeabilization/Wash buffer for acquisition by flow. Samples were run on a 3 laser Cytek Aurora spectral flow cytometer. FCS files were analyzed using Flowjo v10 (10.6.2.) software.
Flow cytometry. Lungs were minced and incubated at 37° C. in an enzyme cocktail of RPMI containing 2.4 mg/mi collagenase I and 20 μg/ml DNase (Invitrogen), then mashed through a 70-μm nylon cell strainer (BD Falcon). […] For analysis immediately ex vivo, cells were washed once in PBS and immediately stained for viability with Biolegend Live/Dead Zombie NIR Fixable Viability Dye and Fc Block for 10 min at room temperature. Cell surface staining was performed in 100 μL of 20% BD Horizon™ Brilliant Stain Buffer+ PBS with surface stain antibody cocktail for 20 min at room temperature. Cells were fixed and permeabilized with eBioscience™ FoxP3/Transcription Factor Staining kit 1× Fixation/Permeabilization reagent overnight at 4° C. Cells were washed with 1× Permeabilization/Wash buffer. Intracellular staining (ICS) was performed in 100 μL 1× Permeabilization/Wash buffer with ICS antibody cocktail for 45 min at room temperature. Cells were washed once with Permeabilization/Wash buffer then resuspended in Permeabilization/Wash buffer for acquisition by flow. […] For the myeloid flow cytometry functional staining, the cells were incubated with protein transport inhibitors for 4 h. Samples were run on a 3 laser Cytek Aurora spectral flow cytometer or a FACSAria II spectral flow cytometer (BD). FCS files were analyzed using Flowjo v10.6.2 software (BD). […] High-dimensional unbiased analysis of cell phenotypes was performed using Flowjo plugins DownSample v3 and UMAP.

HCoV-OC43 [7] = assay: microbe, parasite or virus in culture; conditions: Betacoronavirus 1, OC43, MRC5, read-out: IC50, median inhibitory concentration
[8] = cited from earlier work
MRC-5 cells = conditions: human
[9] = 30 mg/kg daily oral gavage, vs untreated infected controls
[10] = after PMA/ionomycin stimulation

For COC(=O)/C=C/C(=O)OC [dimethyl fumarate], the “replication of SARS-CoV-2 in vitro” value (SARS-CoV-2 [1]) is given as “inhibited replication”.

For CCC(CC)COC(=O)[C@H](C)N[P@](=O)(OC[C@H]1O[C@@](C#N)(c2ccc3c(N)ncnn23)[C@H](O)[C@@H]1O)Oc1ccccc1 [RDV, remdesivir, reference compound], the “TD50, median cytotoxic dose” value (Vero C1008 cells; Vero C1008, drug added 1-2 h before virus (HCoV-OC43 assay)) was 142 µM, the IC50 (HCoV-OC43 [2]; Betacoronavirus 1, OC43, Vero C1008, drug added 1-2 h before virus, read-out: IC50, median inhibitory concentration) was 22 µM and the IC50 (SARS-CoV-2 [3]; Severe acute respiratory syndrome coronavirus 2, Vero C1008, SARS-CoV-2, FIG. 2E, Vero C1008, drug 1 h before virus, read-out: IC50) was 4 µM. It also gave an IC50 (SARS-CoV-2 [3]; Severe acute respiratory syndrome coronavirus 2, Vero C1008, four strains of SARS-CoV-2 (Example 1), read-out: IC50) of 4 to 9 µM.

For C=C(CC(=O)OCCCCCCCC)C(=O)O [4-octyl-itaconate], the “replication of SARS-CoV-2 in vitro” value (SARS-CoV-2 [1]) is given as “inhibited replication”.

In the case of C[S+]([O-])CCCCN=C=S (centres unmarked) [SFN, sulforaphane], the IC50 (SARS-CoV-2 [4]) is reported as 2.4 µM, the “bodyweight loss, less than infected untreated controls” value (SARS-CoV-2/USA/WI1/2020 [5]; 30 mg/kg daily oral gavage from one day before inoculation, day 6 post inoculation) is reported as 7.5% and the “protein concentration in bronchoalveolar lavage (BAL), measure of lung injury” value (SARS-CoV-2/USA/WI1/2020 [5]; [9]) is reported as “significantly lower”. The “protein concentration in bronchoalveolar lavage (BAL), measure of lung injury” value (SARS-CoV-2/USA/WI1/2020 [5]; 30 mg/kg daily oral gavage, vs untreated infected controls, listed as sulforaphane) was “lower”, the “reduction in lung viral load, total SARS-CoV-2 N protein copies, not normalized to Pol2Ra” value (SARS-CoV-2/USA/WI1/2020 [5]; 30 mg/kg daily oral gavage, P=0.1308) was 1.46 log and the “weight loss compared to controls” value (SARS-CoV-2/USA/WI1/2020 [5]; 30 mg/kg daily oral gavage, day 6 post inoculation) was “lost significantly less weight”. For the same compound, the “reduction in lung viral load, SARS-CoV-2 N protein copies normalized to Pol2Ra” value (SARS-CoV-2/USA/WI1/2020 [5]; 30 mg/kg daily oral gavage, vs infected untreated controls) was 1.5 log, the “viral burden in BAL / alveolar fluid (qPCR)” value (SARS-CoV-2/USA/WI1/2020 [5]; [9]) was “significantly lower” and the “histopathology score of lung inflammation” value (SARS-CoV-2/USA/WI1/2020 [5]; 30 mg/kg daily, untreated controls 6/16) was 1/16. For the same compound, the “lung viral load, treated vs controls (Example 1)” value (SARS-CoV-2/USA/WI1/2020 [5]; daily oral gavage from one day before inoculation) was “no statistically significant differences”, the “reduction of viral replication in the lungs” value (SARS-CoV-2/USA/WI1/2020 [5]; prophylactic SFN treatment) was 1.5 orders of magnitude and the “SARS-CoV-2 spike protein distribution in the lungs” value (SARS-CoV-2/USA/WI1/2020 [5]) was “focal distribution”. For the same compound, the “SARS-CoV-2 spike protein distribution in the lungs” value (SARS-CoV-2/USA/WI1/2020 [5]; listed as sulforaphane) was “smaller area”, the “pulmonary pathology (H&E lung sections)” value (SARS-CoV-2/USA/WI1/2020 [5]; vs infected untreated mice) was “lower degree of pulmonary pathology” and the “B cells in the spleen and Ly6G+ neutrophils in the lung” value (SARS-CoV-2/USA/WI1/2020 [6]; Example 1) was “significantly higher expansion”. The “CCR2 expression on alveolar macrophages” value (SARS-CoV-2/USA/WI1/2020 [6]; Example 1) was “reduced”, the “CD86 on lung-resident macrophages” value (SARS-CoV-2/USA/WI1/2020 [6]; Example 1) was “increased” and the “IL-10 and TGFβ produced by macrophages” value (SARS-CoV-2/USA/WI1/2020 [6]; Example 1) was “increased”. For the same compound, the “Ki67 and MHCII on CD8 T cells immediately ex vivo” value (SARS-CoV-2/USA/WI1/2020 [6]; Example 1) was “upregulation”, the “PD-L1 expression on macrophages” value (SARS-CoV-2/USA/WI1/2020 [6]; Example 1) was “lower levels” and the “frequency of B cells, cytotoxic NK cells and CD8 T cells” value (SARS-CoV-2/USA/WI1/2020 [6]; Example 1) was “increased frequency”. The “expression of activation markers CD80, CD86, PD-L1, MHC-II on lung alveolar and interstitial macrophages” value (SARS-CoV-2/USA/WI1/2020 [6]; Example 2) was “lower expression”, the “PD1, MHC-II and Ki-67 on lung CD8+ and CD4+ T cells, directly ex vivo” value (SARS-CoV-2/USA/WI1/2020 [6]; Example 2, P<0.05) was “significantly decreased” and the “frequencies of lung alveolar and interstitial macrophages producing IL-10, IL-1β, TNF-α, TGF-β” value (SARS-CoV-2/USA/WI1/2020 [6]; Example 2, P<0.05) was “significantly lower frequencies”. The “infection-induced increase of IL-1β in alveolar macrophages” value (SARS-CoV-2/USA/WI1/2020 [6]; P<0.0001) was “abrogated”, the “CPT1a+VDAC+ myeloid cells in lung” value (SARS-CoV-2/USA/WI1/2020 [6]; P=0.01) was “significantly decreased” and the “percentage of monocytes and CD11c+ dendritic cells out of total CD45+ immune cells in the lungs” value (SARS-CoV-2/USA/WI1/2020 [6]; P=0.01) was “significantly decreased”. The “IFN-γ and IL-10 from lung CD4+ T cells” value (SARS-CoV-2/USA/WI1/2020 [6]; [10]) was “lower levels”, the “frequency of IL-4 and IL-17 in CD4+ T cells” value (SARS-CoV-2/USA/WI1/2020 [6]; [10]) was “not significantly altered” and the “TNF-α in alveolar macrophages and IFN-γ in T cells” value (SARS-CoV-2/USA/WI1/2020 [6]; mouse, in vivo) was “reduction”. The “recruitment of myeloid cells (monocytes, dendritic cells) into the lungs” value (SARS-CoV-2/USA/WI1/2020 [6]; vs infected untreated mice) was “significantly reduced”, the “TD50, median cytotoxic dose, range over assays” value (Vero C1008 cells; African green monkey, human) was 73 to 89 µM and the IC50 (HCoV-OC43 [7]) was 18 µM. The IC50 (HCoV-OC43 [2]; Betacoronavirus 1, OC43, Vero C1008, 24 h, Vero C1008, established infection, drug added 24 h after virus, read-out: IC50, median inhibitory concentration) was 18 µM, the IC50 (HCoV-OC43 [2]; Betacoronavirus 1, OC43, Vero C1008, Vero C1008, drug 24 h before virus, drug washed out and then virus added, read-out: IC50, median inhibitory concentration) was 21 µM and the IC50 (HCoV-OC43 [2]; Betacoronavirus 1, OC43, Vero C1008, read-out: IC50, median inhibitory concentration, Vero C1008, drug added 1-2 h before virus) was 10 µM. The tolerability ([8]; SFN-rich broccoli sprouts corresponding to 50 to 400 μmol SFN daily) was “well tolerated without clinically significant adverse effects”, the elimination from plasma ([8]; in vivo) was “rapidly eliminated from plasma” and the “TD50, median cytotoxic dose” value (MRC-5 cells) was 83 µM. For the same compound, the IC50 (SARS-CoV-2 [3]; 614G+ clinical strain USA/DCHP-7/2020 (DC)) was 29 µM, the IC50 (SARS-CoV-2 [3]; 614G+ clinical strain USA/MDHP-20/2020 (MD)) was 28 µM and the IC50 (SARS-CoV-2 [3]; Severe acute respiratory syndrome coronavirus 2, Vero C1008, 614G+ clinical strain USA/DCHP-7/2020 (DC)) was 51 µM. For the same compound, the IC50 (SARS-CoV-2 [3]; Severe acute respiratory syndrome coronavirus 2, Vero C1008, 614G+ clinical strain USA/MDHP-20/2020 (MD)) was 48 µM, the IC50 (SARS-CoV-2 [3]; Severe acute respiratory syndrome coronavirus 2, Vero C1008, 24 h, SARS-CoV-2-Wuhan-Hu-1, established infection, drug added 24 h after virus, read-out: IC50, median inhibitory concentration) was 13 µM and the IC50 (SARS-CoV-2 [3]; Severe acute respiratory syndrome coronavirus 2, Vero C1008, both reference strains, Wuhan-Hu-1 and USA-WA1/2020 (Example 1)) was 15 to 17 µM. The IC50 (SARS-CoV-2 [3]; Severe acute respiratory syndrome coronavirus 2, Vero C1008, read-out: IC50, median inhibitory concentration, SARS-CoV-2-Wuhan-Hu-1, Vero C1008, drug 1-2 h before virus) was 12 µM and the IC50 (SARS-CoV-2 [3]; Severe acute respiratory syndrome coronavirus 2, Vero C1008, reference strain USA-WA1/2020, drug 1 h before virus (Example 2)) was 31 µM.
